Reference: patent US20260297060A1, “COMPOUNDS FOR THE DEGRADATION OF MUTANT BRAF” (C4 THERAPEUTICS, INC., priority 2023, published 2026)

System: A375 human melanoma xenografts
Test: In vivo therapeutic efficacy in A375 human melanoma xenografts (tumor volume, T/C, TGI), Example 14
Design: species or system human tumor in female BALB/c nude mice
Details: for Tumor volume: mean ± SEM; for T/C / TGI: PG-D21
Procedure: Agents were tested in the A375 human melanoma xenografts. Compound 26 and Compound 141 were administered to BALB/c nude mice bearing A375 tumors from PG-DO and dosed via PO twice a day (BID) or third a day (TIP) or dosed P daily (QD) from PG-D. Dabrafenib was administered to BALB/c nude mice bearing A375 tumors from PG-D1 and dosed via P daily (QD). Compound 26 was dosed at 1.5 mg/kg (QD), 2 mg/kg (TID), 3 mg/kg (BID), 6 mg/kg (QD) and 10 mg/kg (BID) for 21 days. Compound 141 was dosed at 0.75 mg/kg (BID), 1 mg/kg (TID), 1.5 mg/kg (BID), 3 mg/kg (QD) and 5 mg/kg (BID) for 21 days. Dabrafenib was dosed at 100 mg/kg for 21 days. This study was non-GLP.
One hundred and thirty-eight female BALB/c nude Mus Musculus mice procured from Shanghai Lingchang Biological Science and Technology Co., LTD between the ages of six to eight weeks and with body weight between eighteen and twenty-two grams were used for the study. A spare mouse was also procured.
The A375 tumor cells were maintained in vitro in DMEM medium supplemented with 10% fetal bovine serum and 1% Penicillin-Streptomycin at 37° C. in an atmosphere of 5% CO2 in air. The tumor cells were routinely sub-cultured twice weekly. The cells growing in an exponential growth phase were harvested and counted for tumor inoculation.
Each mouse was inoculated subcutaneously at the right flank with A375 cells (5×10^6) in 0.2 mL of PBS supplemented with Matrigel (PBS: Matrigel=1:1) for tumor development. Animals were grouped for efficacy study on day 15 after tumor inoculation when the average tumor volume reached 220 mm^3. The test articles administration and the animal numbers in each group are shown in the above experimental Table 75.
At the time of routine monitoring, the animals were checked daily for any effects of tumor growth and treatments on normal behavior such as mobility, food and water consumption (by looking only), body weight gain/loss (body weights were measured twice weekly), eye/hair matting and any other abnormal effect as stated in the protocol. Death and observed clinical signs were recorded on the basis of the numbers of animals within each subset.
Prior to the onset of drug treatment, mice were measured for tumor size in two dimensions using a caliper, and the tumor volume (mm^3) was calculated using formula V=0.5 a×b^2 where a and b are the long and short diameters of the tumor in mm, respectively. Mice were randomized into different treatment groups based on the tumor volume.
The major endpoint was to see if the tumor growth could be delayed or mice could be cured. The tumor size was then used for calculations of T/C value. The T/C value (in percent) is an indication of antitumor effectiveness; T and C are the mean volumes of the treated and control groups, respectively on specified day.
TGI was calculated for each group using the formula: TGI (%)=[1−(Ti−T0)/(Ci−C0)]×100; Ti is the average tumor volume of a treatment group on a given day, T0 is the average tumor volume of the treatment group on the day of treatment start, Ci is the average tumor volume of the vehicle control group on the same day with Ti, and C0 is the average tumor volume of the vehicle group on the day of treatment start.
A one-way ANOVA followed by Dunnett's multiple comparison test was performed to compare tumor volume among vehicle group (Group 1) and treatment groups (Group 2-Group 12). All data were analyzed using GraphPad Prism, ns indicates p>0.05, * indicates p<0.05, ** indicates p<0.01, *** indicates p<0.001 and **** indicates p<0.0001.
Tumor growth inhibition of Compound 26, Compound 141 and dabrafenib in the treatment of female BALB/c nude mice bearing A375 xenografts was calculated based on tumor volume measured on […]. TGI and T/C were calculated respectively and the data are detailed in Table 82.

[1] = Compound 26, 1.5 mg/kg p.o. BID × 21 days

**Q.** `CCN(C)S(=O)(=O)Nc1ccc(F)c(Oc2ccc3ncn([C@H]4COC5(CCN(C6CC7(C6)CN(c6cc8c(cc6F)c(N6CCC(=O)NC6=O)nn8C)C7)CC5)C4)c(=O)c3c2)c1C#N` [Compound 26, (3R)-3-[6-[2-cyano-3-[[ethyl(methyl)sulfamoyl]amino]-6-fluoro-phenoxy]-4-oxo-quinazolin-3-yl]-8-[2-[3-(2,4-dioxohexahydropyrimidin-1-yl)-5-fluoro-1-methyl-indazol-6-yl]-2-azaspiro[3.3]heptan-6-yl]-1-oxa-8-azaspiro[4.5]decane] was tested. Which Tumor volume (3 mg/kg p.o. BID x 21 days, day 46 (dosing-free regrowth)) did it give?
**A.** The Tumor volume was 1050 ± 191 mm^3.

**Q.** What about the Tumor volume (3 mg/kg p.o. BID x 21 days, day 49 (dosing-free regrowth)) of the same molecule?
**A.** The Tumor volume was 1328 ± 237 mm^3.

**Q.** And the Tumor volume (3 mg/kg p.o. BID x 21 days, day 53 (dosing-free regrowth))?
**A.** Its Tumor volume is 1789 ± 341 mm^3.

**Q.** And the Tumor volume (3 mg/kg p.o. BID x 21 days, day 56 (dosing-free regrowth))?
**A.** The Tumor volume was 2242 ± 453 mm^3.

**Q.** And the “Tumor Size on PG-D21 (Mean ± SEM)” value (3 mg/kg p.o. BID × 21 days)?
**A.** The value was 48 ± 9 mm^3.

**Q.** What about the T/C (3 mg/kg p.o. BID × 21 days) of the same molecule?
**A.** The T/C was 2.5%.

**Q.** What about the TGI (3 mg/kg p.o. BID × 21 days) of the same molecule?
**A.** The TGI was 110.4%.

**Q.** And the Tumor volume (6 mg/kg p.o. QD x 21 days, day 0)?
**A.** The Tumor volume was 220 ± 16 mm^3.

**Q.** What about the Tumor volume (6 mg/kg p.o. QD x 21 days, day 4) of the same molecule?
**A.** The Tumor volume was 243 ± 16 mm^3.

**Q.** And the Tumor volume (6 mg/kg p.o. QD x 21 days, day 7)?
**A.** The Tumor volume was 158 ± 10 mm^3.

**Q.** What about the Tumor volume (6 mg/kg p.o. QD x 21 days, day 11) of the same molecule?
**A.** Its Tumor volume is 101 ± 7 mm^3.

**Q.** What about the Tumor volume (6 mg/kg p.o. QD x 21 days, day 14) of the same molecule?
**A.** Its Tumor volume is 62 ± 4 mm^3.

**Q.** What about the Tumor volume (6 mg/kg p.o. QD x 21 days, day 18) of the same molecule?
**A.** Its Tumor volume is 49 ± 7 mm^3.

**Q.** And the Tumor volume (6 mg/kg p.o. QD x 21 days, day 21)?
**A.** The Tumor volume was 54 ± 13 mm^3.

**Q.** What about the Tumor volume (6 mg/kg p.o. QD x 21 days, day 25 (dosing-free regrowth)) of the same molecule?
**A.** The Tumor volume was 137 ± 74 mm^3.

**Q.** And the Tumor volume (6 mg/kg p.o. QD x 21 days, day 28 (dosing-free regrowth))?
**A.** Its Tumor volume is 230 ± 109 mm^3.

**Q.** And the Tumor volume (6 mg/kg p.o. QD x 21 days, day 32 (dosing-free regrowth))?
**A.** The Tumor volume was 335 ± 129 mm^3.

**Q.** What about the Tumor volume (6 mg/kg p.o. QD x 21 days, day 35 (dosing-free regrowth)) of the same molecule?
**A.** The Tumor volume was 478 ± 161 mm^3.

**Q.** What about the Tumor volume (6 mg/kg p.o. QD x 21 days, day 39 (dosing-free regrowth)) of the same molecule?
**A.** The Tumor volume was 751 ± 185 mm^3.

**Q.** What about the Tumor volume (6 mg/kg p.o. QD x 21 days, day 42 (dosing-free regrowth)) of the same molecule?
**A.** The Tumor volume was 894 ± 208 mm^3.

**Q.** And the Tumor volume (6 mg/kg p.o. QD x 21 days, day 46 (dosing-free regrowth))?
**A.** The Tumor volume was 1363 ± 315 mm^3.

**Q.** What about the Tumor volume (6 mg/kg p.o. QD x 21 days, day 49 (dosing-free regrowth)) of the same molecule?
**A.** The Tumor volume was 1802 ± 396 mm^3.

**Q.** And the Tumor volume (6 mg/kg p.o. QD x 21 days, day 53 (dosing-free regrowth))?
**A.** Its Tumor volume is 1863 ± 377 mm^3.

**Q.** And the Tumor volume (6 mg/kg p.o. QD x 21 days, day 56 (dosing-free regrowth))?
**A.** Its Tumor volume is 2305 ± 461 mm^3.

**Q.** What about the “Tumor Size on PG-D21 (Mean ± SEM)” value (6 mg/kg p.o. QD × 21 days) of the same molecule?
**A.** The value was 54 ± 13 mm^3.

**Q.** And the T/C (6 mg/kg p.o. QD × 21 days)?
**A.** The T/C was 2.9%.

**Q.** What about the TGI (6 mg/kg p.o. QD × 21 days) of the same molecule?
**A.** The TGI was 110.0%.

**Q.** What about the Tumor volume (10 mg/kg p.o. BID x 21 days, day 0) of the same molecule?
**A.** The Tumor volume was 220 ± 15 mm^3.

**Q.** What about the Tumor volume (10 mg/kg p.o. BID x 21 days, day 4) of the same molecule?
**A.** Its Tumor volume is 126 ± 10 mm^3.

**Q.** What about the Tumor volume (10 mg/kg p.o. BID x 21 days, day 7) of the same molecule?
**A.** Its Tumor volume is 65 ± 6 mm^3.

**Q.** What about the Tumor volume (10 mg/kg p.o. BID x 21 days, day 11) of the same molecule?
**A.** Its Tumor volume is 42 ± 4 mm^3.

**Q.** And the Tumor volume (10 mg/kg p.o. BID x 21 days, day 14)?
**A.** Its Tumor volume is 26 ± 3 mm^3.

**Q.** And the Tumor volume (10 mg/kg p.o. BID x 21 days, day 18)?
**A.** Its Tumor volume is 20 ± 2 mm^3.

**Q.** What about the Tumor volume (10 mg/kg p.o. BID x 21 days, day 21) of the same molecule?
**A.** The Tumor volume was 17 ± 2 mm^3.

**Q.** And the Tumor volume (10 mg/kg p.o. BID x 21 days, day 25 (dosing-free regrowth))?
**A.** The Tumor volume was 17 ± 2 mm^3.

**Q.** And the Tumor volume (10 mg/kg p.o. BID x 21 days, day 28 (dosing-free regrowth))?
**A.** Its Tumor volume is 29 ± 3 mm^3.

**Q.** What about the Tumor volume (10 mg/kg p.o. BID x 21 days, day 32 (dosing-free regrowth)) of the same molecule?
**A.** Its Tumor volume is 62 ± 16 mm^3.

**Q.** And the Tumor volume (10 mg/kg p.o. BID x 21 days, day 35 (dosing-free regrowth))?
**A.** The Tumor volume was 112 ± 34 mm^3.

**Q.** What about the Tumor volume (10 mg/kg p.o. BID x 21 days, day 39 (dosing-free regrowth)) of the same molecule?
**A.** Its Tumor volume is 253 ± 70 mm^3.

**Q.** And the Tumor volume (10 mg/kg p.o. BID x 21 days, day 42 (dosing-free regrowth))?
**A.** The Tumor volume was 357 ± 91 mm^3.

**Q.** What about the Tumor volume (10 mg/kg p.o. BID x 21 days, day 46 (dosing-free regrowth)) of the same molecule?
**A.** Its Tumor volume is 550 ± 131 mm^3.

**Q.** What about the Tumor volume (10 mg/kg p.o. BID x 21 days, day 49 (dosing-free regrowth)) of the same molecule?
**A.** Its Tumor volume is 711 ± 168 mm^3.

**Q.** And the Tumor volume (10 mg/kg p.o. BID x 21 days, day 53 (dosing-free regrowth))?
**A.** The Tumor volume was 1021 ± 215 mm^3.

**Q.** And the Tumor volume (10 mg/kg p.o. BID x 21 days, day 56 (dosing-free regrowth))?
**A.** The Tumor volume was 1128 ± 250 mm^3.

**Q.** And the “Tumor Size on PG-D21 (Mean ± SEM)” value (10 mg/kg p.o. BID × 21 days)?
**A.** The value was 17 ± 2 mm^3.

**Q.** What about the T/C (10 mg/kg, p.o., BID × 21 days) of the same molecule?
**A.** Its T/C is 0.9%.

**Q.** And the TGI (10 mg/kg, p.o., BID × 21 days)?
**A.** Its TGI is 112.2%.

**Q.** What about the minimal effective dose (A-375, po, tumor bearing mouse model, BID, read-out: maximally efficacious minimal dose (MED)) of the same molecule?
**A.** Its minimal effective dose is 3 mg/kg.

**Q.** And the “Tumor Size on PG-D21 (Mean ± SEM)” value [1]?
**A.** The value was 400 ± 70 mm^3.

**Q.** What about the T/C [1] of the same molecule?
**A.** Its T/C is 21.2%.

**Q.** What about the TGI [1] of the same molecule?
**A.** Its TGI is 89.2%.
